US20250018019A1, “TREATMENT OF INTERFERON DRIVEN INFLAMMATION” (The Provost, Fellows, Foundation Scholars and the other …, priority 2023, published 2025)
Structures can show the parent of a compound that is named as a salt.

Experiments:
human macrophages = experiment: RT-qPCR gene expression in human macrophages; assay type: cell-based; conditions: LPS-stimulated human macrophages, LPS 4 h
Description: PBMCs were taken, and CD14+ monocytes were isolated using MagniSort Human CD14 Positive Selection Kit (Thermo Fisher) according to the manufacturer's protocol. CD14 Monocytes were then differentiated in T-175 flasks in RPMI containing FCS (10%), penicillin/streptomycin (1%) and recombinant human M-CSF (1:1000). After 6 days, the supernatant was discarded, cells were scraped and counted, and human monocyte-derived macrophages (hMDMs) were plated in 12-well plates at 1×10^6 cells/mL RPMI containing FCS (10%) and penicillin/streptomycin (1%).
All compounds used DMSO as a vehicle except for 4-hydroxy tamoxifen (EtOH), NAC (PBS), and AOAA for tracing experiments (Media). […]
RNA extraction from cells was carried out using a Purelink™ RNA kit (Invitrogen) according to the manufacturer's instructions. […] Isolated RNA was quantified using a NanoDrop 2000 spectrophotometer, and RNA concentration was normalised to the lowest concentration across all samples with RNAse-free water. If necessary, samples were DNAse-treated after quantification using DNAse I (Thermo Fisher) according to the manufacturer's instructions. […] Real-time quantitative PCR was performed on the cDNA generated in the previous step, using primers designed in-house and ordered from Eurofins Genomics, as detailed in Table S2. […] Relative expression (2^−ΔΔCT) was calculated from the CT values for each sample and gene of interest.

BMDMs = experiment: Seahorse XF Glycolysis Stress Test (ECAR); assay type: cell-based, mouse; conditions: BMDMs pre-treated 3 h, LPS 4 h
Description: All compounds used DMSO as a vehicle except for 4-hydroxy tamoxifen (EtOH), NAC (PBS), and AOAA for tracing experiments (Media). LPS was used at a concentration of 100 ng/ml for indicated timepoints (2, 3, 4, 6, 8, 24, 48 h). FHIN1 (10 or 20 μM), MMF (50 or 100 μM), DMF (25 μM), AOAA (5 mM), oligomycin (10 μM), CCCP (50 μM) NAC (1 mM), and IMT1 (10 μM) pre-treatments were performed for 3 h prior the addition of LPS. Cells were treated with valinomycin (10 nM) 15 mins before LPS stimulation. Anti-CD210 or IgG control (10 μg/ml) antibodies were added to cells 1 h prior to LPS stimulation. Recombinant mouse IL-10 protein (100 ng/ml) was added to cells at the same time as LPS. Cells were treated with IFN-B1 (220 ng/ml) for 3 h. Cells were treated with C-178 (1 μM) 1 h prior to LPS stimulation or transfection with 2′3′-cGAMP (1.5 μg/ml) for 4 hrs to achieve cGAS-STING activation. Cells were treated with ODN 2088 (1 μM) for 1 hr prior to LPS stimulation or transfection with CPG ODN 1826 (1.5 μg/ml) to achieve TLR9 activation. 3 different timepoints of 4-hydroxy tamoxifen (TAM) (600 nM or 2 μM) or EtOH treatment were performed-these are specified in the individual figure legends. For ‘48 h’ treatments EtOH/TAM was added on day 5 of 6 during the BMDM differentiation protocol. On day 6 they were plated with EtOH/TAM (left overnight) and treated the following day. […]

With `CCOC(=O)[C@@]12CCCC=C1N(Cc1ccc(-c3ccccc3)cc1)C(=O)[C@H]2CC(=O)NC` [FHIN1, Fumarate hydratase-IN-1] the IL10 expression (human macrophages) was “suppressed” and the Tnfa expression (human macrophages) was “increased”.

`COC(=O)/C=C/C(=O)OC` [DMF, dimethyl fumarate] was tested, and the “glycolysis (ECAR)” value (BMDMs) was “suppressed glycolysis”.
